According to ChEMBL document CHEMBL5649166, “RIP3 induces apoptosis independent of pronecrotic kinase activity” (Mol Cell, 2014):

Columns and labels:
[1] = biological target: Glycogen synthase kinase-3 alpha (Homo sapiens) (UniProt P49840); experiment: Inhibition of human GSK3a using YRRAAVPPSPSLSRHSSPHQ(pS)EDEEE as substrate at 1 uM in presence of 32P-ATP by Hotspot assay relative to control; values are per cent of control
[2] = biological target: Calcium/calmodulin-dependent protein kinase type 1 (Homo sapiens) (UniProt Q14012); experiment: Inhibition of human CAMK1a using KKALRRQETVDAL as substrate at 1 uM in presence of 32P-ATP by Hotspot assay relative to control; values are per cent of control
[3] = biological target: Calcium/calmodulin-dependent protein kinase type 1B (Homo sapiens) (UniProt Q6P2M8); experiment: Inhibition of human CAMK1b using KKALRRQETVDAL as substrate at 1 uM in presence of 32P-ATP by Hotspot assay relative to control; values are per cent of control
[4] = biological target: Dual specificity mitogen-activated protein kinase kinase 2 (Homo sapiens) (UniProt P36507); experiment: Inhibition of human MEK2 using ERK2 (K52R) as substrate at 1 uM in presence of 32P-ATP by Hotspot assay relative to control; values are per cent of control
[5] = biological target: Death-associated protein kinase 1 (Homo sapiens) (UniProt P53355); experiment: Inhibition of human DAPK1 using KKLNRTLSFAEPG as substrate at 1 uM in presence of 32P-ATP by Hotspot assay relative to control; values are per cent of control
[6] = biological target: Serine/threonine-protein kinase OSR1 (Homo sapiens) (UniProt O95747); experiment: Inhibition of human OSR1/OXSR1 using RRHYYYDTHTNTYYLRTFGHNTRR as substrate at 1 uM in presence of 32P-ATP by Hotspot assay relative to control; values are per cent of control
[7] = biological target: T1, Serine/threonine-protein kinase D3 (Homo sapiens) (UniProt O94806); experiment: Inhibition of human PKCnu/PRKD3 using KKLNRTLSVA as substrate at 1 uM in presence of 32P-ATP by Hotspot assay relative to control; values are per cent of control
T1 sequence (whole entry): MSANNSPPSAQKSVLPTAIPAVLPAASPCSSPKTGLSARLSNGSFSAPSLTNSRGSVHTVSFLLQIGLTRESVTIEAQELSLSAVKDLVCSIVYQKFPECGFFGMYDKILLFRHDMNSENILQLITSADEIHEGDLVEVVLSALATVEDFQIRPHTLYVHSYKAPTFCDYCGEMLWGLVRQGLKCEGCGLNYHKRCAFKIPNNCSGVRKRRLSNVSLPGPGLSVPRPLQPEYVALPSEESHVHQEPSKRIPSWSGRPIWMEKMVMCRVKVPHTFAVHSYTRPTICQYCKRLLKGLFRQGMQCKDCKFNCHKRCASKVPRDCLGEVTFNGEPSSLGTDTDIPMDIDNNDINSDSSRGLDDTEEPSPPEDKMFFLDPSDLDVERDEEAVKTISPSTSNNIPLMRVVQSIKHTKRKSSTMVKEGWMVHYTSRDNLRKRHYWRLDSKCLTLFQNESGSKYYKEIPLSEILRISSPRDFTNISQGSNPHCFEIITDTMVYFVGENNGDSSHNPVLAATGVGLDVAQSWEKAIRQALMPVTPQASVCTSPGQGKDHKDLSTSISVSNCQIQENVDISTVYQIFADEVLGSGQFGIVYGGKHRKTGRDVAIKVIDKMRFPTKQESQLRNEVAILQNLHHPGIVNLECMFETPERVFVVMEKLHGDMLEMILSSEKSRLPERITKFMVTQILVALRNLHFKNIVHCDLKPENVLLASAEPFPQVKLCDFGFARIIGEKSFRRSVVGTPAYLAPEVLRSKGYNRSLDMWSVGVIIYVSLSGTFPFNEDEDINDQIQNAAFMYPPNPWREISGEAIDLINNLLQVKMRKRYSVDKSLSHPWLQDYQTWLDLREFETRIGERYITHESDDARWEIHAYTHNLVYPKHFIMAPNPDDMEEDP

[8] = biological target: Serine/threonine-protein kinase 10 (Homo sapiens) (UniProt O94804); experiment: Inhibition of human LOK/STK10 using RLGRDKYKTLRQIRQ as substrate at 1 uM in presence of 32P-ATP by Hotspot assay relative to control; values are per cent of control
[9] = biological target: RAF proto-oncogene serine/threonine-protein kinase (Homo sapiens) (UniProt P04049); experiment: Inhibition of human RAF1 using MEK1 (K97R) as substrate at 1 uM in presence of 32P-ATP by Hotspot assay relative to control; values are per cent of control
[10] = biological target: Proto-oncogene tyrosine-protein kinase Src (Homo sapiens) (UniProt P12931); experiment: Inhibition of human c-Src using poly[Glu:Tyr] (4:1) as substrate at 1 uM in presence of 32P-ATP by Hotspot assay relative to control; values are per cent of control
[11] = biological target: Protein kinase C beta type (Homo sapiens) (UniProt P05771); experiment: Inhibition of human PKCb2 using ERMRPRKRQGSVRRRV as substrate at 1 uM in presence of 32P-ATP by Hotspot assay relative to control; values are per cent of control
[12] = biological target: Casein kinase I isoform gamma-2 (Homo sapiens) (UniProt P78368); experiment: Inhibition of human CK1g2 using KRRRAL[pS]VASLPGL as substrate at 1 uM in presence of 32P-ATP by Hotspot assay relative to control; values are per cent of control
Sequence of Casein kinase I isoform gamma-2 (Homo sapiens) (P78368 whole entry, looked up, canonical isoform): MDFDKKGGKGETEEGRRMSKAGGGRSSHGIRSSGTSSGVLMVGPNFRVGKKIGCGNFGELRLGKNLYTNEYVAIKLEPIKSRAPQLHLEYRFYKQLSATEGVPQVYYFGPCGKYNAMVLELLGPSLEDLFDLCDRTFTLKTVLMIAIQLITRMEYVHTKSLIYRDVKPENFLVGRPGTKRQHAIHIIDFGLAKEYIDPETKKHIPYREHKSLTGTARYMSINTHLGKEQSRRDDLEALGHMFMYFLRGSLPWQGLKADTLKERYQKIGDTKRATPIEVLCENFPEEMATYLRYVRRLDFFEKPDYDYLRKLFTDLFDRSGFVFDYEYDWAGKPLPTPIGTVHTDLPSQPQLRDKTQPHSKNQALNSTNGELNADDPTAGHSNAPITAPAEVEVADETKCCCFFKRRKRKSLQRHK

Sequence of Serine/threonine-protein kinase OSR1 (Homo sapiens) (O95747 2-527 limits assumed): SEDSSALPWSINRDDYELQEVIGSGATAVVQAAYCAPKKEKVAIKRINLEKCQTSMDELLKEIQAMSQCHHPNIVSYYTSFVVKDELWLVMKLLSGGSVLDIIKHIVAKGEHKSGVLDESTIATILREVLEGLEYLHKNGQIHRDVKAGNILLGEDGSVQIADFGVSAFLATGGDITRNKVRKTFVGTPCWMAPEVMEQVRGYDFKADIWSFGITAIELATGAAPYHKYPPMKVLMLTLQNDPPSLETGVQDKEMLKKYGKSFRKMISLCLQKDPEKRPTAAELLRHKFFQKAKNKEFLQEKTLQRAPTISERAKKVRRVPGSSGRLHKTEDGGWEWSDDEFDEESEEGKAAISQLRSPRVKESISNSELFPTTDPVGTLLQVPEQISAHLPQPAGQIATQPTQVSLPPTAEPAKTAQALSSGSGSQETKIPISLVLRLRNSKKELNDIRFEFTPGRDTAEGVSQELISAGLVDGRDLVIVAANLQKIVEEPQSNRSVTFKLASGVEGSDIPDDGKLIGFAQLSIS
Sequence of Proto-oncogene tyrosine-protein kinase Src (Homo sapiens) (P12931 2-536 limits assumed): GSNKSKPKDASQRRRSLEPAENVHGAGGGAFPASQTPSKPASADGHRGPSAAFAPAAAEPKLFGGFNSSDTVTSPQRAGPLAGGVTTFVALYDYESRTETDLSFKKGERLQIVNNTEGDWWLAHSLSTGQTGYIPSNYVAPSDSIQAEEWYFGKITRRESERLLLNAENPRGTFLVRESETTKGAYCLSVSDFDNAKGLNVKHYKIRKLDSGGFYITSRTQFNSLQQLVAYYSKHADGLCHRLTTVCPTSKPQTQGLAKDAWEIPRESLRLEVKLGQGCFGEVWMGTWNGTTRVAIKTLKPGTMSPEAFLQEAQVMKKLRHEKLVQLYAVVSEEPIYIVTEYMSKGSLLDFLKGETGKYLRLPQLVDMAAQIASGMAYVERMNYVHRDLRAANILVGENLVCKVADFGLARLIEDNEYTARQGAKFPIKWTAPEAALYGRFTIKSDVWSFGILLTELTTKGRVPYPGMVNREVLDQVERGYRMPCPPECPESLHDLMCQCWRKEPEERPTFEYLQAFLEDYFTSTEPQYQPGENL
Sequence of Glycogen synthase kinase-3 alpha (Homo sapiens) (P49840 2-483 limits assumed): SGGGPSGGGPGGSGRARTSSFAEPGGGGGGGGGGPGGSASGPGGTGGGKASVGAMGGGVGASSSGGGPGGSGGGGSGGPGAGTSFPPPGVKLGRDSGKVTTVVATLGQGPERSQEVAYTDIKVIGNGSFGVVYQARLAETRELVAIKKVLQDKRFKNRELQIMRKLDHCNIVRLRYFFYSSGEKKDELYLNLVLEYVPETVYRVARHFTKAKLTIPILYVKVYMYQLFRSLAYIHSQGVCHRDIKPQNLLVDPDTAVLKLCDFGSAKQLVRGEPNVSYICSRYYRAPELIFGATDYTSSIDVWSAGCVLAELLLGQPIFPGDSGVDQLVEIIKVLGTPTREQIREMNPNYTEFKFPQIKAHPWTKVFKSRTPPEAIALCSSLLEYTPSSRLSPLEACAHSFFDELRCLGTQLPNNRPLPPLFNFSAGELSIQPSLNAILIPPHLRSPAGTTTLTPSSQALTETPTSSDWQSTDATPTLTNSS
Sequence of Death-associated protein kinase 1 (Homo sapiens) (P53355 whole entry, looked up): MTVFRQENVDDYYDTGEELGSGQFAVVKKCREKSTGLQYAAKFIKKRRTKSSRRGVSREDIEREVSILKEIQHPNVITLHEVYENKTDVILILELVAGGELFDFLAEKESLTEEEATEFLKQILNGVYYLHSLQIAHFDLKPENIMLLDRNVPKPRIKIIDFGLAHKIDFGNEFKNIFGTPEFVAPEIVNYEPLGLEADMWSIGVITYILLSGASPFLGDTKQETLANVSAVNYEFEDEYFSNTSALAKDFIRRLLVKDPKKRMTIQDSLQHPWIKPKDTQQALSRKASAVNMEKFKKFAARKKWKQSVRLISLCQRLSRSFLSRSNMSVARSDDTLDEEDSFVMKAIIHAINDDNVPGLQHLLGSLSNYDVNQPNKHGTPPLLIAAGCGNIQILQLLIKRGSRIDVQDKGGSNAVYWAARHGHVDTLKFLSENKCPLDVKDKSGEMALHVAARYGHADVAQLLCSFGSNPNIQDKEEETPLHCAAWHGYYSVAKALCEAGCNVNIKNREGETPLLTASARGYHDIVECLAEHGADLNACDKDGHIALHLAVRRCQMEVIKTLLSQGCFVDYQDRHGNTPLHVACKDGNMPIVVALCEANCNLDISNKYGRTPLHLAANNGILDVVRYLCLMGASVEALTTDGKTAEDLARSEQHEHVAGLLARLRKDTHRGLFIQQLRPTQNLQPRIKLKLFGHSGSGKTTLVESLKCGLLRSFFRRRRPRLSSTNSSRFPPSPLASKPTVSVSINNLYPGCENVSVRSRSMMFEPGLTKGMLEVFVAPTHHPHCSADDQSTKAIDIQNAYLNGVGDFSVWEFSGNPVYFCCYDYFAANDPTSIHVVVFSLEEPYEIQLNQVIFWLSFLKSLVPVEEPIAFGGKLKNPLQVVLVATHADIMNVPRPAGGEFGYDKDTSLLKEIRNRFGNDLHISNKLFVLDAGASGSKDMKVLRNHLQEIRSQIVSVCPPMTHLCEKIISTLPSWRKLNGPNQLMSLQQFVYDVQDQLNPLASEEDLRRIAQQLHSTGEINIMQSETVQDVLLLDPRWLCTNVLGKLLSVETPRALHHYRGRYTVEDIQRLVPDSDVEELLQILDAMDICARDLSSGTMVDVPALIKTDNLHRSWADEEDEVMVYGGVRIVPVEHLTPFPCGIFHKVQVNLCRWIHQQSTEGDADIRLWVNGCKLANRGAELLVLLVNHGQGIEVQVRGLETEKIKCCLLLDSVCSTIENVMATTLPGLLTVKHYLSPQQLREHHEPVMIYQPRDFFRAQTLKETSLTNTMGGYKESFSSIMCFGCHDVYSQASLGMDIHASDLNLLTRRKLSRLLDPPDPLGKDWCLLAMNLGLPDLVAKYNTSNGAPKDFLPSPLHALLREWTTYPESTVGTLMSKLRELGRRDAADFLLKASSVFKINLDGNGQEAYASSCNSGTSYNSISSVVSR
Sequence of Protein kinase C beta type (Homo sapiens) (P05771 2-671 limits assumed): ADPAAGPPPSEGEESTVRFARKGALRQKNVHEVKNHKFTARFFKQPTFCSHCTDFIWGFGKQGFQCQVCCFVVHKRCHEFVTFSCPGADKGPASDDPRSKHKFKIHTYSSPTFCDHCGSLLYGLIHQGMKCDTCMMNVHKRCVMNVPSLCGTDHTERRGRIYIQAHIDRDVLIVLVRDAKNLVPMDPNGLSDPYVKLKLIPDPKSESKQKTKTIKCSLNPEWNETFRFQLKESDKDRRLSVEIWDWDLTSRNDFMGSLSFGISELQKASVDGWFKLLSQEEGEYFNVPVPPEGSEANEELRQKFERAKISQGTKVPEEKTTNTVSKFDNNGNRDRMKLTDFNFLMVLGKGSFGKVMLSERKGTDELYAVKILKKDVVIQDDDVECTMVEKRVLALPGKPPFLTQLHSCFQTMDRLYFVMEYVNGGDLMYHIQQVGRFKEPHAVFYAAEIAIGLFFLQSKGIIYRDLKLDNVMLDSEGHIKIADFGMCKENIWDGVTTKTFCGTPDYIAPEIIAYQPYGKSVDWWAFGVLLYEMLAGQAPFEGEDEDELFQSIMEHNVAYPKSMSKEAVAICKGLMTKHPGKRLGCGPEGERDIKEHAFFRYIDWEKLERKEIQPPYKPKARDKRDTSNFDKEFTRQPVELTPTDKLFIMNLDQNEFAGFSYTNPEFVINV
Sequence of RAF proto-oncogene serine/threonine-protein kinase (Homo sapiens) (P04049 whole entry): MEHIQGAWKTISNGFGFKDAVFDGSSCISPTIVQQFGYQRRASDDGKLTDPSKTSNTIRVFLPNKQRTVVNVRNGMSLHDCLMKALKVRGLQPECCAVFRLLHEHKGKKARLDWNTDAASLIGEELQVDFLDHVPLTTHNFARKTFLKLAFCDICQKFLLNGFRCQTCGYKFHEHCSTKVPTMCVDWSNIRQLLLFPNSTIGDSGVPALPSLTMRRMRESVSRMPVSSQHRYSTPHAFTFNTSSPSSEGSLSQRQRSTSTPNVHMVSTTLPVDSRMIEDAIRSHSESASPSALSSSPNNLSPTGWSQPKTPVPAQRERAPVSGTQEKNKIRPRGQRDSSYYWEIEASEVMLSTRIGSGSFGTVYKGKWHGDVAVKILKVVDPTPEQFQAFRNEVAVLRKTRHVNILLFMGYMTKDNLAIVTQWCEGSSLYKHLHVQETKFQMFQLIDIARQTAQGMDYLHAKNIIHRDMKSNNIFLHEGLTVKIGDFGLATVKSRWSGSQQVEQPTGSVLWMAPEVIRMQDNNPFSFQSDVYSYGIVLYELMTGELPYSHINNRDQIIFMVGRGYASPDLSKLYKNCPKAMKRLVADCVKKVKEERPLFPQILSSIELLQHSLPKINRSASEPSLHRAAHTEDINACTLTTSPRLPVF
Sequence of Calcium/calmodulin-dependent protein kinase type 1B (Homo sapiens) (Q6P2M8 whole entry): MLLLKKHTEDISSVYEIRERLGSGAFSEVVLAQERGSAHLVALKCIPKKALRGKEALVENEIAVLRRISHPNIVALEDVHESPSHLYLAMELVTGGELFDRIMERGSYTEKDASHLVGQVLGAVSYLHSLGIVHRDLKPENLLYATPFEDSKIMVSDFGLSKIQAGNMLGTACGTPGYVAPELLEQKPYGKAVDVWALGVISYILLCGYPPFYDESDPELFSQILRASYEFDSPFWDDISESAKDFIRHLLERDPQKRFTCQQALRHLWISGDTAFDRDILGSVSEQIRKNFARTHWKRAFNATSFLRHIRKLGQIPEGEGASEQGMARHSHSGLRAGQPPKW

Compound `CC(C)S(=O)(=O)c1ccc2nccc(Nc3ccc4scnc4c3)c2c1` has a residual activity [1] of 92.4%, a residual activity [2] of 92.1% and a residual activity [3] of 87.8%. It also gave a residual activity [4] of 105%, a residual activity [5] of 97% and a residual activity [6] of 97.8%. It also gave a residual activity [7] of 95.4%, a residual activity [8] of 70.9% and a residual activity [9] of 54.1%. The residual activity [10] was 28.3%, the residual activity [11] was 94.8% and the residual activity [12] was 100%.
In the case of `Cc1cc(-c2cnc(N)c3c(-c4ccc5scnc5c4)csc23)n(C)n1`, the residual activity [1] is reported as 99.8%, the residual activity [2] is reported as 97.4% and the residual activity [3] is reported as 98.5%. It also gave a residual activity [4] of 97.8%, a residual activity [5] of 95.3% and a residual activity [6] of 97.4%. For the same compound, the residual activity [7] was 33.4%, the residual activity [8] was 78.2% and the residual activity [9] was 50.5%. The residual activity [10] was 37.1%, the residual activity [11] was 76.8% and the residual activity [12] was 79.1%.
`CNC(=O)c1ccc2c(c1)ncn2-c1ccc(CC(=O)OC(C)(C)C)cc1` gave a residual activity [1] of 99.8%, a residual activity [2] of 95% and a residual activity [3] of 90.2%. It also gave a residual activity [4] of 98.3%, a residual activity [5] of 91.6% and a residual activity [6] of 98.2%. It also gave a residual activity [7] of 101%, a residual activity [8] of 96.8% and a residual activity [9] of 91.3%. The residual activity [10] was 80%, the residual activity [11] was 94.7% and the residual activity [12] was 91.8%.
